The series can be described thus: Metabolite analysis of plasma and brain tissue (SPE/HPLC). It is filed as in vivo, rat. Particulars: for parent compound as share of the radioactivity in brain: rat brain; for percentage of radioactivity associated with parent: rat plasma. Here is the method: Sixteen adult male Sprague-Dawley rats (body weight 250-320 g: mean±SD=288±25 g) were used in 5 separate experiments. Each rat was injected with ˜13 MBq Compound 1, at a specific activity of […], via a previously catheterised tail vein. The associated stable compound was 0.5±0.2 nmol/kg. Discrete samples of arterial blood were collected from 9 of the rats via a previously catheterised tail artery.
Plasma samples were injected directly onto a solid phase extraction (SPE) column (C18), with di-ammonium hydrogen phosphate (0.1 M) mobile phase, and the retained radioactivity subsequently injected onto a reverse phase HPLC column (300×7.8 mm i.d., p-Bondapak C18) with a mobile phase of methanol:0.1 M ammonium formate, […]. The eluates were monitored for radioactivity and absorbance at 254 nm. Brain tissues were assayed using the same methodology, excepting that the samples were homogenised and de-proteinated prior to injection onto the HPLC column.

For `CSc1cccc(N([11CH3])C(=N)Nc2cc(SC)ccc2Cl)c1` [Compound 1, (N-(2-chloro-5-(methylthio)phenyl)-N′-(3-methylthio)phenyl)-N′-[N-methyl-^11C]-methylguanidine], the “parent compound as share of the radioactivity in brain” value is “approximately 95%” (20 minutes after i.v. injection) and roughly 90% (70 minutes after i.v. injection). Moreover, the “percentage of radioactivity associated with parent” value is reported as roughly 50% (10 min after i.v. injection) and roughly 5% (90 min after i.v. injection). Also, the “metabolism and clearance from the plasma” value (rat, i.v.) was “rapid metabolism and clearance”.
